The target in data set [1] is T1, human ERα (Homo sapiens, UniProt P03372).
T1 construct: expressed in transfected cells; host or cells: HAECT-1 cells (immortalized human aortic endothelial cells) infected with Ad5-wt-hERα adenovirus
T1 sequence (P03372 1-595): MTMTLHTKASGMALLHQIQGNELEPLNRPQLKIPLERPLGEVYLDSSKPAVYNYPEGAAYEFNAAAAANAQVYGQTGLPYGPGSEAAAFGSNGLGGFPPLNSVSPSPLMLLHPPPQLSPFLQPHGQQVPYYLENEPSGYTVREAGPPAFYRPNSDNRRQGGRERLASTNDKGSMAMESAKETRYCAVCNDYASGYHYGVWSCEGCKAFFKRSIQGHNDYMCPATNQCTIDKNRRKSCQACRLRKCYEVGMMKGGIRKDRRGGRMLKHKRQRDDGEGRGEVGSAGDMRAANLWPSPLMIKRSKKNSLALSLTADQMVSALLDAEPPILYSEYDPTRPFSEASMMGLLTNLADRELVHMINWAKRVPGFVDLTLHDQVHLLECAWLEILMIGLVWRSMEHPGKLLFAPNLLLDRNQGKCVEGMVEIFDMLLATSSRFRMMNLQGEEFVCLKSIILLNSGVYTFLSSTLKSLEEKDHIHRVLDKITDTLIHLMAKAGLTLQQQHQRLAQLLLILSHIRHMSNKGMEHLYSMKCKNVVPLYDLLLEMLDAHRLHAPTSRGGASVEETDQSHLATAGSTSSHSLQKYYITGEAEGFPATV
The experiment in a line: IL-6 luciferase (IL6-luc) assay in ERα infected HAECT-1 cells. The settings on record: for IC50: ERα infected HAECT-1 cells, IL-1β, Ad5-IL-6(1250 bp).Luc virus, 15-20 h; for IL6-luc (% E2): efficacy relative to E2, value in parentheses after the IC50. The format is cell-based. How it is done:
(§1) After four hours, cells were washed with EBM-BSA and incubated overnight in the same medium. Following overnight incubation, cells were washed with EBM-BSA and infected for 2 hours with 6 ml of a 1:10 dilution of Ad5-3x(NFκB).Luc virus (Adenovirus luciferase expression vector driven by 3 repeats of the MHC NFκb site 5′ to the thymidine kinase promoter) in EBM-BSA. After two hours, cells were washed and incubated at 34° C. for 1 hour. […] Control (no ER infection) cells were processed as above without Ad5-wt-hERα virus infection.
(§2) ERα infected HAECT-1 cells or control cells were thawed, diluted 42× in warm EBM-BSA, plated into 96-well plates at 0.1 ml/well and incubated for 4 h at 34° C. […] After 15-20 h, cells are lysed with 50 ul of Promega Cell Culture Lysis reagent for ˜5 min at room temp on shaker. After lysing, 15 ul of lysate is transferred to luminometer plates for luciferase determination. […] Creatine kinase was determined from the rate of increase in A340 following addition of 100 uL of CK assay reagent (Sigma, cat. No 47-10) to the remainder of the cell lysate.
(§3) For IC50 and EC50 calculations, mean IL-6, luciferase or CK values versus log10 of the compound concentration were fitted to a four parameter logistic equation. The IC50/EC50 value, ‘Hill slope’, upper and lower limits of the curve were iteratively estimated.

The target of data set [2] is T1, human ERα. Nature of the data set: Creatine kinase (CK) assay in ERα infected HAECT-1 cells. The format is cell-based. The settings on record: for EC50: creatine kinase in lysate of ERα infected HAECT-1 cells; for CK (% E2): efficacy relative to E2, value in parentheses after the EC50. How it is done: as §1, §2, §3

Molecules are shown by their SMILES.

Consider `CC1c2cc(F)ccc2-c2ccc(F)cc2N1C(=O)c1ccc(O)cc1` (racemic) [Example 42, 4-[(3,8-difluoro-6-methylphenanthridin-5(6H)-yl)carbonyl]phenol], for which the melting point is 193 to 195 °C. Moreover, at human ERα [1], the IC50 turned out to be 4.5 nM and the “IL6-luc (% E2)” value was found to be 95%. Moreover, on human ERα [2], the EC50 was found to be 90 nM and the “CK (% E2)” value was 37%.
In the same order, the values of `C[C@@H]1c2ccccc2-c2ccc(F)cc2N1C(=O)c1ccc(O)cc1` (single isomer, unassigned) [Example 37] are 235.7 to 236.8 °C, 6 nM, 114%, 28 nM and 20%.
Molecule `C[C@@H]1c2ccccc2-c2ccc(F)cc2N1C(=O)c1ccc(O)cc1O` (single isomer, unassigned) [Example 40] registered a melting point of 184 to 187 °C. Also, on human ERα [1], the half-inhibitory concentration (IC50) came out at 1 nM and the “IL6-luc (% E2)” value was 107%. Also, at human ERα [2], a half-maximal response (EC50) required 8 nM and the “CK (% E2)” value was determined as 20%.
In the case of `C[C@@H]1c2cc(F)ccc2-c2ccccc2N1C(=O)c1ccc(Cl)c(O)c1` [Example 11, 2-chloro-5-{[(6R)-8-fluoro-6-methylphenanthridin-5(6H)-yl]carbonyl}phenol], on human ERα [1], the IC50 was 271 nM and the “IL6-luc (% E2)” value was 107%. On human ERα [2], the EC50 was 307 nM and the “CK (% E2)” value was −29%.
In turn, `CC[C@@H]1c2cc(F)ccc2-c2ccccc2N1C(=O)c1ccc(O)cc1` [Example 20, 4-{[(6R)-6-ethyl-8-fluorophenanthridin-5(6H)-yl]carbonyl}phenol] showed a melting point of 105 to 106 °C. In addition, at human ERα [1], the IC50 is 6 nM and the “IL6-luc (% E2)” value was 95%.
Turning to `CC[C@@H]1c2cc(F)ccc2-c2ccccc2N1C(=O)c1cccc(O)c1` [Example 21, 3-{[(6R)-6-ethyl-8-fluorophenanthridin-5(6H)-yl]carbonyl}phenol], the melting point lay within 101 to 102 °C. For the same molecule, on human ERα [1], inhibition was half-maximal at 40 nM (IC50) and the “IL6-luc (% E2)” value amounted to 134%. The “CK (% E2) at a single concentration” value on human ERα [2] (@ 1 μM) was determined as 50% @ 1 μM.
The molecule `CC[C@@H]1c2cc(F)ccc2-c2ccccc2N1C(=O)c1ccc(O)cc1O` [Example 22, 4-{[(6R)-6-ethyl-8-fluorophenanthridin-5(6H)-yl]carbonyl}benzene-1,3-diol] displayed a melting point of 98 to 100 °C. Moreover, at human ERα [1], half-maximal inhibition (IC50) was put at 2 nM and the “IL6-luc (% E2)” value is 106%. At human ERα [2], the midpoint of the response, the EC50, lay at 3 nM and the “CK (% E2)” value is recorded as 38%.
As for `C[C@@H]1c2ccccc2-c2ccc(Cl)cc2N1C(=O)c1cccc(O)c1` [Example 25, 3-{[(6R)-3-chloro-6-methylphenanthridin-5(6H)-yl]carbonyl}phenol], at human ERα [1], the IC50 stood at 9 nM and the “IL6-luc (% E2)” value came to 103%. In addition, at human ERα [2], the EC50 turned out to be 141 nM and the “CK (% E2)” value turned out to be 26%.
Regarding `C[C@@H]1c2ccccc2-c2ccc(Cl)cc2N1C(=O)c1ccc(O)cc1` [Example 28, 4-{[(6R)-3-chloro-6-methylphenanthridin-5(6H)-yl]carbonyl}phenol], the melting point is 273.5 to 276 °C. Moreover, on human ERα [1], the IC50 is 6 nM and the “IL6-luc (% E2)” value is given as 120%. In addition, on human ERα [2], the EC50 came to 69 nM and the “CK (% E2)” value stood at 32%.
In turn, `C[C@H]1c2ccccc2-c2ccc(Cl)cc2N1C(=O)c1ccc(O)cc1` [Example 29, 4-{[(6S)-3-chloro-6-methylphenanthridin-5(6H)-yl]carbonyl}phenol] came in with a melting point of 273.7 to 276 °C. In addition, at human ERα [1], the half-inhibitory concentration (IC50) came to 1000 nM and the “IL6-luc (% E2)” value stood at 75%.

The record behind these values is patent US7585871B2, “Phenanthridine carbonyl phenols” (Wyeth, priority 2004, dated 2009).
